Measurements from patent US20230117034A1, “PYRAZOLOTRIAZINES” (Bayer Aktiengesellschaft, priority 2019, published 2023).

How the values were obtained:
[1] = tested on: MDA-MB-231, human breast cancer cells; assay: Proliferation assay MDA-MB-231 (crystal violet, 4 days); assay type: cell-based; conditions: Homo sapiens, MDA-MB-231, 96 h, MDA-MB-231 cells, median, read-out: Prolif-MDA MB-231, IC50-[mol/l] (median)
Outline: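 Following a 24 h attachment in 10% fetal calf serum medium, cells receive test substance over 0.01-10 µmol/L for 4 days. Dye retained by fixed cells is eluted and read at 595 nm; cell number change is referenced to day-0 and untreated wells.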

[2] = target: T1, CYCLIN K (nuclear staining in CAL-120 cells) (Homo sapiens, UniProt O75909); assay: CYCLIN K nuclear protein level: immunofluorescence high content analysis (CAL-120); assay type: cell-based; conditions: 24 h, 50% reduction of nuclear CCNK staining intensity, median, read-out: CYCLIN K degradation IF, DC50-[mol/l] (median)
T1 construct: endogenous in cells; host or cells: CAL-120 human breast cancer cells (DSMZ ACC 459)
T1 sequence (O75909 whole entry): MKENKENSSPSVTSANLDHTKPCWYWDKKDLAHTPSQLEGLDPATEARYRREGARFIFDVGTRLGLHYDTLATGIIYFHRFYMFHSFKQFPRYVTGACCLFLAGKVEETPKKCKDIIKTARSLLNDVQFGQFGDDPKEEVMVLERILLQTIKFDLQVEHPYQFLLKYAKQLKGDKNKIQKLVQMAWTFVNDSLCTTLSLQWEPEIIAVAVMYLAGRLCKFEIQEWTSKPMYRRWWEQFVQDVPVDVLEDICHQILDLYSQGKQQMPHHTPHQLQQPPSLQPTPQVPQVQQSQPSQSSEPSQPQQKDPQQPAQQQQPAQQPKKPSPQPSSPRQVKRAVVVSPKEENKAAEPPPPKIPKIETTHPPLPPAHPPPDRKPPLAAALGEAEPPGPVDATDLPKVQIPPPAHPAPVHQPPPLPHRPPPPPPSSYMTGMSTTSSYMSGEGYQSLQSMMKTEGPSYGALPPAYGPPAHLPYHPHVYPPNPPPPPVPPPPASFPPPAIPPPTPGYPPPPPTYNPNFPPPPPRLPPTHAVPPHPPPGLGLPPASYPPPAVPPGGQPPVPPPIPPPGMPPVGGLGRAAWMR
T1 sequence (Q9NYV4 whole entry partner): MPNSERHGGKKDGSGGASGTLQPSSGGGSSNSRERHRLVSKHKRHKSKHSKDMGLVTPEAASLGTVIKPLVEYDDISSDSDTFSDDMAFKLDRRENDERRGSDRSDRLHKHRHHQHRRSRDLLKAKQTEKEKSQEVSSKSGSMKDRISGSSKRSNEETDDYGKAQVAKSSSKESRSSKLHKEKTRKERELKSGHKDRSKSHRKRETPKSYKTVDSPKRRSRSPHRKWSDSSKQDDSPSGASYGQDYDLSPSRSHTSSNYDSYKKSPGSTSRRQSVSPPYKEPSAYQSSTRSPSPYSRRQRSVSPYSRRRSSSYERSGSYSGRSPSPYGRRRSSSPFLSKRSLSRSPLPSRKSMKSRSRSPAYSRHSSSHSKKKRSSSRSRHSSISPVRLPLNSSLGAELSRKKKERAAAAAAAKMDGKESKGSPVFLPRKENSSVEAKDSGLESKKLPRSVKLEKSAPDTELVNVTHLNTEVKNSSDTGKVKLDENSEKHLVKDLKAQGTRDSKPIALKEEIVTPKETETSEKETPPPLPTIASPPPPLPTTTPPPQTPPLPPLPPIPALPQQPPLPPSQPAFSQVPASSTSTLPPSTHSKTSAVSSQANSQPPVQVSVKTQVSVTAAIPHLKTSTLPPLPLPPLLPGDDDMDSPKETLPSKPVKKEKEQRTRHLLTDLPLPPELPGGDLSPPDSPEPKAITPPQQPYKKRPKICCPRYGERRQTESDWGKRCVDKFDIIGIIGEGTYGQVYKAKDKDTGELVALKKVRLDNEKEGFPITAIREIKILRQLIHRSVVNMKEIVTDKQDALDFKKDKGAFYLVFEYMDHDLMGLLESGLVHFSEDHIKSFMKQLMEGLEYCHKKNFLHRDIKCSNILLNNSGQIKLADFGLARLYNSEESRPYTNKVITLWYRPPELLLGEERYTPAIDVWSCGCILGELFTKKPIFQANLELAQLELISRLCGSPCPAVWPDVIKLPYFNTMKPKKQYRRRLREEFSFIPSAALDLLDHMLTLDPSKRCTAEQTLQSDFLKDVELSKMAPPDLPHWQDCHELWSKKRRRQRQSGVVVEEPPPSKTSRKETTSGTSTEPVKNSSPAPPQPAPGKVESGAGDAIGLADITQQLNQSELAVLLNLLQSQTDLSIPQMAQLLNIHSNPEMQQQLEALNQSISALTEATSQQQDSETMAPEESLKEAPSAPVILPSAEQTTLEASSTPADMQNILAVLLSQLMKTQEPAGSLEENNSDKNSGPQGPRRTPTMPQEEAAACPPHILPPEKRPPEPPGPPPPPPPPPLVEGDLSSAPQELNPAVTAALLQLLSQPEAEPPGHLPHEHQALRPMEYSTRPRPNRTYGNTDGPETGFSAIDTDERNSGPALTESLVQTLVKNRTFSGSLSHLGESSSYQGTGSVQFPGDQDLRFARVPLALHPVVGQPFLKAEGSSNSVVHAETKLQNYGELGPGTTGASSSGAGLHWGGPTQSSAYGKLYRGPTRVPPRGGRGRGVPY
Outline: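 CAL-120 breast cancer cells treated in dose-response for 24 h at 37 °C, PFA-fixed and immunostained for cyclin K with Hoechst counterstain. Confocal imaging quantified nuclear intensity; DC50 is the concentration giving 50% reduction of nuclear CCNK staining, normalized to DMSO and control.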

CDK9/CycT1 = target: T2, CDK9/CycT1 (Homo sapiens, UniProt P50750); assay: CDK9/CycT1 high ATP kinase assay (TR-FRET, 2 mM ATP); assay type: biochemical; conditions: 2 mM ATP (high ATP); median; read-out: CDK9/CyclinT1, 2 mM ATP (high ATP), IC50 (median)
T2 construct: Recombinant full-length His-tagged human CDK9 and CycT1; purchased Life Technologies PV4131; host or cells: insect cells
T2 sequence (P50750 whole entry): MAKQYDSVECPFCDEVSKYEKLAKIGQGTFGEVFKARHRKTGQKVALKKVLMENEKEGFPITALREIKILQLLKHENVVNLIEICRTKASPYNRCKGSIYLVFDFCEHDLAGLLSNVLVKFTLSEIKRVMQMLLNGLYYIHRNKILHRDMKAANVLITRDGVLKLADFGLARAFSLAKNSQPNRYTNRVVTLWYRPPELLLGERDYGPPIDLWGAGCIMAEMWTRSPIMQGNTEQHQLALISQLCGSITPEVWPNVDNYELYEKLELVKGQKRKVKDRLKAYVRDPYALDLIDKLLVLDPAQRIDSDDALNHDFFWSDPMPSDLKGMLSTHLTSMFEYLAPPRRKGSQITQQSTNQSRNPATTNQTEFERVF
T2 sequence (O60563 whole entry partner): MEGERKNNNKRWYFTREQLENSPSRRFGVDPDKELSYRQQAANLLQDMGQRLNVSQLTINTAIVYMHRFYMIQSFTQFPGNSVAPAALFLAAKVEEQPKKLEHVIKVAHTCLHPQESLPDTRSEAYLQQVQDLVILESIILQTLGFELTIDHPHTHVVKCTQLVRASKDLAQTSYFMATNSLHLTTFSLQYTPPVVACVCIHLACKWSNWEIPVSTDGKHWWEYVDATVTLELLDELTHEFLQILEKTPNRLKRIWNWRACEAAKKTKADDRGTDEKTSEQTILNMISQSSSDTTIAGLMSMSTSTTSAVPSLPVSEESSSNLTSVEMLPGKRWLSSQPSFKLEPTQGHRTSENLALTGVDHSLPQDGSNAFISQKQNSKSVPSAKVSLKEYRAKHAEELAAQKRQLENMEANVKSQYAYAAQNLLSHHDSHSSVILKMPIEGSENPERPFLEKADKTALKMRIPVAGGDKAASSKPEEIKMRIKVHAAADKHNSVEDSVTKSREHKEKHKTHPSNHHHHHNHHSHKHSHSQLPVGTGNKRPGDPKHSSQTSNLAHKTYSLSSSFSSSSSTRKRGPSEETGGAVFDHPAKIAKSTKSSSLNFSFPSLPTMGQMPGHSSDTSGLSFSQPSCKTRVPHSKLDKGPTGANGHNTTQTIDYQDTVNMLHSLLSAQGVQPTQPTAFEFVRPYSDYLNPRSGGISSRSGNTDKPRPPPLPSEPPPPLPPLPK
Outline: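 Full-length His-tagged human CDK9/CycT1 (insect cell, ~0.5 μg/mL) preincubated 15 min at 22 °C with compound in Tris pH 8.0, MgCl2, DTT buffer before reaction with biotinylated peptide substrate at high ATP (2 mM).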

SMILES	IC50 [1]	DC50 [2]	IC50 (CDK9/CycT1)
Fc1c(Cl)ccc2[nH]c(CNc3nc(N4CC5CCC(C4)N5)nc4c(C5CC5)cnn34)nc12 [Example 379, N-[(5-chloro-4-fluoro-1H-benzimidazol-2-yl)methyl]-8-cyclopropyl-2-(3,8-diazabicyclo[3.2.1]octan-3-yl)pyrazolo[1,5-a][1,3,5]triazin-4-amine]	2.92 nM	0.404 nM	11300 nM
Fc1c(Cl)ccc2[nH]c(CNc3nc(N4CC5CCC(C4)N5)nc4c(Br)cnn34)nc12 [Example 380, 8-bromo-N-[(5-chloro-4-fluoro-1H-benzimidazol-2-yl)methyl]-2-(3,8-diazabicyclo[3.2.1]octan-3-yl)pyrazolo[1,5-a][1,3,5]triazin-4-amine]	2.19 nM	0.22 nM	5930 nM
CN1C2CCC1CN(c1nc(NCc3nc4c(F)cccc4[nH]3)n3ncc(C(F)(F)F)c3n1)C2 [Example 384, N-[(4-fluoro-1H-benzimidazol-2-yl)methyl]-2-(8-methyl-3,8-diazabicyclo[3.2.1]octan-3-yl)-8-(trifluoromethyl)pyrazolo[1,5-a][1,3,5]triazin-4-amine]	8.48 nM	0.662 nM	> 20000 nM
